The values below come from the Deep4Chem optical property database.

This data set in a line: solvent given as SMILES.
[1] abbreviates: in O=P(c1ccccc1)(c1ccccc1)c1ccccc1Oc1ccccc1P(=O)(c1ccccc1)c1ccccc1.

Regarding `CC1(C)[C@@H]2CC[C@]1(C)c1nc3cc(-c4cccs4)ccc3nc12`, the emission maximum reads like this: (in CC#N) 418 nm; (in CCCCCC) 402 nm; (in CCCCO) 442 nm; (in CCO) 446 nm; (in CCOC(C)=O) 406 nm; (in CO) 451 nm. Moreover, the emission maximum amounted to 402 nm (in Cc1ccccc1), 415 nm (in ClC(Cl)Cl) and 413 nm (in ClCCl).

The molecule `CC1=CC(C)=[N+]2C1=C(c1ccc(I)cc1)c1c(C)cc(C)n1[B-]21Oc2ccc3ccccc3c2-c2c(ccc3ccccc23)O1` came in with an emission maximum (in ClC(Cl)Cl) of 516.4 nm.

`F[B-]1(F)Oc2ccccc2-c2nc(-c3ccccc3)c3cc(Cl)ccc3[n+]21`: the emission maximum (in Cc1ccccc1) was determined as 542 nm.

Turning to `CC(=C(C#Cc1ccccc1)C#Cc1ccccc1)c1ccc(C(C)=C(C#Cc2ccccc2)C#Cc2ccccc2)cc1`, the emission maximum (in ClC(Cl)Cl) was 454 nm.

The molecule `COc1ccc(/C=C/C2=[O+][B-](F)(F)OC(/C=C/c3ccc(OC)cc3)=C2c2ccc(OC)cc2)cc1` came in with an emission maximum (in ClCCl) of 571 nm.

Turning to `O=C1C(=Cc2ccc(Br)cc2)Oc2cccc(O)c21`, the emission maximum (in CC#N) came to 487 nm.

For `Cc1cc(C)c(C2=C3C=CC=[N+]3[B-]3(c4ccccc4)Oc4cc(O)cc5c6ccc(C)cc6c6cc2n3c6c45)c(C)c1` (configuration not stated), the emission maximum (in ClC(Cl)Cl) was 669 nm.

Take `CCCCCc1c(C)c2c3ccccc3[nH]c2c2ccccc12`: the emission maximum (in ClCCl) amounted to 369 nm.

For `c1ccc(N(c2ccccc2)c2ccc(-c3ccc4c(c3)C3(c5ccccc5Oc5ccccc53)c3cc(-c5ccc(N(c6ccccc6)c6ccccc6)cc5)ccc3-4)cc2)cc1`, the emission maximum was found to be 457 nm (in ClCCl) and 441 nm (in c1cc(-n2c3ccccc3c3ccccc32)cc(-n2c3ccccc3c3ccccc32)c1).

Regarding `COC(=O)[C@@H]1C(=O)Oc2ccccc2[C@H]1c1c[nH]c2ccccc12`, the emission maximum (in CS(C)=O) came out at 376 nm.

On to `O=Cc1ccc(C#CC(C#Cc2ccc(C=O)s2)=Cc2ccc(C=C(C#Cc3ccc(C=O)s3)C#Cc3ccc(C=O)s3)s2)s1`, for which the emission maximum (in ClC(Cl)Cl) amounted to 595 nm.

Where the note is “in ClC(Cl)Cl”, `CCCN1c2ccccc2Sc2cc(/C=C\c3cc(=O)oc4cc(C)c(Cl)cc34)ccc21` had an emission maximum of 648 nm.

As for `N#Cc1c(N2CCCCC2)cc(-c2cccs2)c2c1-c1cccc3cccc-2c13`, where the note is “in O”, the emission maximum is reported as 555 nm.

Consider `Oc1ccc2ccccc2c1/C=N/CC/N=C/c1c(O)ccc2ccccc12`, for which the emission maximum (in CC#N) came to 466 nm.

For the setting “in ClCCl”, `C(=C\c1ccc(-c2cccc3ccccc23)s1)/c1ccc(-c2cccc3ccccc23)s1` yielded an emission maximum of 475 nm.

In the case of `C[Si]1(C)C2=CC(=[N+]3CCC3)C=C(F)C2=Nc2c(F)cc(N3CCC3)cc21`, the emission maximum (in CCO) is listed as 719 nm.

Regarding `C[Si](C)(C)c1cccc2c(C#N)cccc12`, the emission maximum (in C1CCCCC1) is given as 333 nm.

As to `Cc1ccc2c(c1)C(c1ccccc1)(c1ccccc1)c1cc(C)ccc1N2c1ccc2c(c1)Sc1ccccc1B2c1c(C(C)C)cc(C(C)C)cc1C(C)C`, the emission maximum is, setting by setting: (in Cc1ccccc1) 493 nm; (in O=P(c1ccccc1)(c1ccccc1)c1ccc2oc3ccc(P(=O)(c4ccccc4)c4ccccc4)cc3c2c1) 497 nm.

As for `Fc1ccc(-c2cc3ccc4cc(-c5ccc(F)cc5)cc5ccc(c2)c3c45)cc1`, the emission maximum came to 413.38 nm (in C1CCCCC1); 411.8 nm (in C1CCOC1); 408.05 nm (in CC#N); 411.8 nm (in CCCCCC); 408.84 nm (in CCO); 409.82 nm (in CN(C)C=O). Also, the emission maximum is reported as 408.05 nm (in CO), 410.54 nm (in ClC(Cl)Cl) and 409.82 nm (in ClCCl).

The molecule `N#Cc1ccc(C=C2Oc3cccc(O)c3C2=O)cc1` came in with an emission maximum (in CC#N) of 510 nm.

The molecule `Cc1ccc2c(c1)c1cc(C)ccc1n2-c1cccc(-n2c3ccc(C)cc3c3cc(C)ccc32)c1C#N` displayed an emission maximum (in Cc1ccccc1) of 417 nm and an emission maximum under setting [1] of 432 nm.

In the case of `CN(C)c1ccc(C#Cc2ccc(-c3nc(C#N)c(C#N)n3C)cc2)cc1`, the emission maximum is, setting by setting: (in C1CCCCC1) 406 nm; (in CC#N) 514 nm; (in CO) 489 nm; (in ClC(Cl)Cl) 479 nm.

For `COc1cc2c3c4c(c5ccc(C(C)(C)C)cc5c5c(OC)cc(OC)c(c2c(OC)c1OC)c45)=[N+]1C3=Nc2c3c4cc(OC)c(OC)c(OC)c4c4c(OC)cc(OC)c5c6cc(C(C)(C)C)ccc6c(c3c54)n2[B-]1(F)F`, under “in Cc1ccccc1”, the emission maximum was found to be 907 nm.

Take `CC(C)(C)c1ccc2oc3nc4oc5ccc(N6c7ccccc7Oc7ccccc76)cc5c4cc3c2c1`: the emission maximum (in ClC(Cl)Cl) is 491 nm.

`O=S(=O)(c1ccccc1)c1ccc(-n2c3ccccc3c3c2c2ccccc2n3-c2ccccc2)cc1` gave an emission maximum (in Cc1ccccc1) of 476 nm.

`O=C1c2ccccc2C2=Nc3ccc4ccccc4[n+]3[B-](F)(F)N12` registered an emission maximum (in ClCCl) of 444 nm.

Regarding `CCn1c2ccc(S(=O)(=O)O)cc2c(=O)c2cc3c(cc21)c(=O)c1cc(S(=O)(=O)O)ccc1n3CCCCCC(=O)O`, the emission maximum (in O) worked out at 559 nm.

Turning to `Cc1cc(-c2nc(-c3ccccc3)nc(-c3ccccc3)n2)cc(C)c1N1c2ccccc2CCc2ccccc21`, the emission maximum (in Cc1ccccc1) was found to be 475.79 nm.

In the case of `CCCCN1\C(=C/C=C/C=C/C2=[N+](CCCC)c3ccc4ccccc4c3C2(C)C)C(C)(C)c2c1ccc1ccccc21`, the emission maximum by setting is: (in C1CCOC1) 710 nm; (in CC#N) 698 nm; (in CC(C)=O) 701 nm; (in CCO) 704 nm; (in CN(C)C=O) 705 nm; (in CO) 701 nm. The molecule further yielded an emission maximum (in CS(C)=O) of 709 nm and an emission maximum (in ClCCl) of 713 nm.

With `CC1(C)C(/C=C/C=C/C=C/C=C2/N(S(=O)(=O)[O-])c3ccc(S(=O)(=O)[O-])cc3C2(C)C)=[N+](S(=O)(=O)[O-])c2ccc(S(=O)(=O)[O-])cc21`, the emission maximum reads like this: (in CO) 776 nm; (in O) 771 nm.

Turning to `Cc1ccc(/C=C(\c2ccccc2)c2nc3ccccc3o2)cc1`, the emission maximum (in C1CCCCC1) is on record as 380 nm and the emission maximum (in CO) is reported as 385 nm.

The molecule `c1ccc2c(c1)Sc1ccccc1N2c1ccc2c(c1)C1(c3ccccc3-c3ccccc31)c1cc(N3c4ccccc4Sc4ccccc43)ccc1-2` returned an emission maximum (in Cc1ccccc1) of 498 nm.

For `Cc1ccc(N2C(c3ccccc3[NH-])=[NH+]C(c3ccccc3)C2c2ccccc2)cc1` (configuration not stated), for the setting “in Cc1ccccc1”, the emission maximum was 572 nm.

As for `COc1ccc(C2=C3C(/C=C/c4cc(OC)c(OC)c(OC)c4)=C(C=O)C(C)=[N+]3[B-](F)(F)n3c(/C=C/c4cc(OC)c(OC)c(OC)c4)c(C=O)c(C=Cc4cc(OC)c(OC)c(OC)c4)c32)cc1`, the emission maximum (in ClCCl) was 686 nm.

For the molecule `CCn1c2ccccc2c2cc(/C=C/c3cccc(/C=C/c4ccc5c(c4)c4ccccc4n5CC)[n+]3CCCS(=O)(=O)[O-])ccc21`, the emission maximum is 581 nm (in C1CCOC1), 579 nm (in CC#N), 578 nm (in CC(C)=O) and 598 nm (in Cc1ccccc1).

As to `Cc1c(-c2nc(-c3ccccc3)nc(-c3ccccc3)n2)ccc(-n2c3ccccc3c3cc4c(cc32)C2c3ccccc3C4c3ccccc32)c1C`, the emission maximum amounted to 427 nm (in Cc1ccccc1) and 435 nm under setting [1].

For `CC(C)(C)c1ccc2c(c1)c1cc(C(C)(C)C)ccc1n2-c1ccc2oc3nc4oc5ccc(C(F)(F)F)cc5c4cc3c2c1`, the emission maximum reads like this: (in C1CCCCC1) 396 nm; (in C1CCOC1) 455 nm; (in CC#N) 513 nm; (in CS(C)=O) 517 nm; (in Cc1ccccc1) 422 nm; (in ClC(Cl)Cl) 364 nm.

Where the note is “in CS(C)=O”, `O=C1CC(=O)Nc2ccccc2N1` had an emission maximum of 337 nm.

Where the note is “in CO”, `CCC1(CC)c2cc(-c3ccc(C(C)(C)C)cc3)ccc2-c2ccc(-c3ccc4c(c3)C(CC)(CC)c3cc(-c5ccc6c(c5)C(CC)(CC)c5cc(-c7ccc(C(C)(C)C)cc7)ccc5-6)ccc3-4)cc21` had an emission maximum of 402.3 nm.

Take `CCCSC1=[N+]2C(=C(c3ccccc3)c3ccc(SCCC)n3[B-]2(F)F)C=C1SC#N`: the emission maximum is, setting by setting: (in CC#N) 584 nm; (in CCCCCC) 597 nm; (in CCOC(C)=O) 588 nm; (in CO) 582 nm; (in ClCCl) 586 nm.

Where the note is “in Cc1ccccc1”, `CCCC1=Cc2nc1ccc1[nH]c(cc1CCC)c1nc(ccc3[nH]c2cc3CCC)C(CCC)=C1` displayed an emission maximum of 641 nm.

With `c1ccc2cc(-n3c4ccccc4c4ccccc43)ccc2c1`, the emission maximum runs as follows: (in C1CCCCC1) 362 nm; (in C1CCOC1) 374 nm; (in CC#N) 388 nm; (in CCO) 379 nm; (in CCOC(C)=O) 372 nm; (in CCOCC) 368 nm. The emission maximum is, setting by setting: (in CO) 382 nm; (in Cc1ccccc1) 364 nm; (in ClC(Cl)Cl) 376 nm.

`Cc1ccc(-c2ccc(-c3ccc(-c4ccc(-c5ccc(C)cc5)cc4)c(/C(=C(/c4ccccc4)c4cc(-c5ccc(-c6ccc(C)cc6)cc5)ccc4-c4ccc(-c5ccc(C)cc5)cc4)c4ccccc4)c3)cc2)cc1` displayed an emission maximum (in C1CCOC1) of 498 nm.

Molecule `COc1ccc(C2=[N+]3C(=Nc4c(-c5ccccc5-c5ccc(C(C)(C)C)cc5)cc(-c5ccc(OC)cc5)n4[B-]3(F)F)c3c2c2cc(C(C)(C)C)ccc2c2ccccc32)cc1` displayed an emission maximum (in Cc1ccccc1) of 723 nm.

Take `CCCCn1c(-c2ccc(-c3nnc(-c4ccc5ccccc5c4)o3)cc2)nc2c3ccccc3c3ccccc3c21`: under “in ClCCl”, the emission maximum is 448 nm.

For the molecule `C(=C\c1c2ccccc2cc2ccccc12)/c1ccc2ccccc2n1`, the emission maximum reads like this: (in CC1CCCCC1) 492 nm; (in CC#N) 510 nm.

In turn, `Cc1ccc(C2=C3C=CC(=[N+](C)C)C=C3[Si](C)(C)c3cc(N(C)C)ccc32)c(C)c1` had an emission maximum (in O) of 660 nm.

In the case of `CC[N+]1(CC)CN2C(=N1)C(C(=O)O)=Cc1ccccc12`, the emission maximum (in CN(C)C=O) came out at 463 nm and the emission maximum (in O) came to 462 nm.
